The results in this text go back to patent US5457106A, “Pyridine derivatives, their production and use” (Takeda Chemical Industries, Ltd., priority 1991, dated 1995).

Counter-ions that a name gives are not always drawn.

One test concerns Rat carrageenin pedal edema. Description: Rat carrageenin pedal edema inhibitory activity. To be noted: Rattus norvegicus, po, 3 h, 50 mg/kg, orally, 3 hours after carrageenin; read-out: Inhibitory percentage (carrageenin pedal edema). It is filed as in vivo, rat (Jcl: SD). On the procedure:
Rat Carrageenin Pedal Edema Inhibitory Activity A Jcl: SD male rat (6 weeks old, weight 160-220 g) was used. After the mesurement of the volume of the dexter hind limb foot pad, a test compound suspended in 5% gum arabic solution was administered orally. Immediately after the administration, water was further administered orally so that the total administration volume of liquid became 5 ml/rat. After one hour, 0.05 ml of 1% carrageenin suspension in physiological saline was injected subcutaneously in the foot pad to induce edema [Winter, […]. and Nuss, G. W.: Proc. Soc. exp. […] Three hours after injection of carrageenin, the volume of the dexter limb was measured, and the edema volume was calculated by the difference between the volume after injection and the volume prior to injection.
(In general: The carrageenan paw model is a standard test of acute inflammation.)
Consider `O=C(NCCCSc1ccncc1)c1cccs1` [Example 46, 4-[3-(2-thenoylamino)propylthio]pyridine], for which the inhibition in vivo at 50 mg/kg stood at 39%.
`O=C(NCCCSc1ccncc1)c1ccsc1` [Example 54, 4-[3-(3-thiophenecarbonylamino)propylthio]pyridine]: the inhibition in vivo at 50 mg/kg was 45%.
Turning to `O=C1c2ccccc2CN1CCSc1ccncc1` [Example 105, 4-[2-(isoindolin-1-on-2-yl)ethylthio]pyridine], the inhibition in vivo at 50 mg/kg came out at 31%.
On to `O=C1c2ccccc2CN1CCCOc1ccncc1` [Example 101, 4-[3-(isoindolin-1-on-2-yl)propyloxy]pyridine], for which the inhibition in vivo at 50 mg/kg was determined as 26%.
For `O=C(NCCCSc1ccncc1)c1ccccn1` [Example 42, 4-[3-(2-picolynoylamino)propylthio]pyridine], the inhibition in vivo at 50 mg/kg worked out at 34%.
Take `O=C(NCCCSc1ccncc1)c1cc2ccccc2s1` [Example 57, 4-[3-(thianaphtene-2-carbonylamino)propylthio]pyridine]: the inhibition in vivo at 50 mg/kg stood at 35%.
Still for that read-out and setting: with `O=C1c2ccccc2C(=O)N1COc1ccncc1` [Example 65, 4-(phthalimidomethyloxy)pyridine] the figure was 39%.

For another test, the system named is Mouse phenylquinone writhing. The experiment in a line: Mouse phenylquinone writhing inhibitory activity. To be noted: Mus musculus, po, 20 min, 50 mg/kg, orally; read-out: Inhibitory percentage (phenylquinone writhing). It is filed as in vivo, mouse (Slc: ICR). In outline: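 Male ICR mice (4 weeks, 17–24 g) dosed orally with compound suspended in 5% gum arabic. After 30 min, 0.02% phenylquinone (0.1 ml/10 g) given i.p.; writhing and stretching responses counted over 20 min.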
(In writhing tests, fewer writhes than in controls are read as antinociception.)
Turning to `O=C(NCCCSc1ccncc1)c1cccs1` [Example 46, 4-[3-(2-thenoylamino)propylthio]pyridine], the inhibition in vivo at 50 mg/kg was 66%.
Turning to `O=C(NCCCSc1ccncc1)c1ccsc1` [Example 54, 4-[3-(3-thiophenecarbonylamino)propylthio]pyridine], the inhibition in vivo at 50 mg/kg was 58%.
In the case of `O=C(c1ccccc1)N(CCCSc1ccncc1)Cc1ccccc1` [Example 77, 4-[3-(N-benzyl-N-benzoylamino)propylthio]pyridine hydrochloride], the inhibition in vivo at 50 mg/kg turned out to be 62%.
Take `O=C1c2ccccc2CN1CCSc1ccncc1` [Example 105, 4-[2-(isoindolin-1-on-2-yl)ethylthio]pyridine]: the inhibition in vivo at 50 mg/kg was 59%.
Still for that read-out and setting: next, `O=C1c2ccccc2CN1CCCOc1ccncc1` [Example 101, 4-[3-(isoindolin-1-on-2-yl)propyloxy]pyridine]: 66%.
Regarding `O=C(NCCCSc1ccncc1)c1ccccn1` [Example 42, 4-[3-(2-picolynoylamino)propylthio]pyridine], the inhibition in vivo at 50 mg/kg was determined as 51%.
With `O=C(NCCCSc1ccncc1)c1cc2ccccc2s1` [Example 57, 4-[3-(thianaphtene-2-carbonylamino)propylthio]pyridine], the inhibition in vivo at 50 mg/kg stood at 71%.
Take `O=C1c2ccccc2C(=O)N1COc1ccncc1` [Example 65, 4-(phthalimidomethyloxy)pyridine]: the inhibition in vivo at 50 mg/kg was 80%.

Staying with this test, now noted: Mus musculus, po, 20 min, 100 mg/kg, orally; read-out: Inhibitory percentage (phenylquinone writhing).
On to `CCCCCCCCCC(=O)NCCCSc1ccncc1` [Example 1], for which the inhibition in vivo at 100 mg/kg was 61%.

The target in a further test is T1, cyclooxygenase (Rattus norvegicus, UniProt Q63921).
T1 construct: from tissue; host or cells: platelets in platelet-rich plasma from rat abdominal aorta blood (Jcl:wistar, male)
T1 sequence (Q63921 27-602): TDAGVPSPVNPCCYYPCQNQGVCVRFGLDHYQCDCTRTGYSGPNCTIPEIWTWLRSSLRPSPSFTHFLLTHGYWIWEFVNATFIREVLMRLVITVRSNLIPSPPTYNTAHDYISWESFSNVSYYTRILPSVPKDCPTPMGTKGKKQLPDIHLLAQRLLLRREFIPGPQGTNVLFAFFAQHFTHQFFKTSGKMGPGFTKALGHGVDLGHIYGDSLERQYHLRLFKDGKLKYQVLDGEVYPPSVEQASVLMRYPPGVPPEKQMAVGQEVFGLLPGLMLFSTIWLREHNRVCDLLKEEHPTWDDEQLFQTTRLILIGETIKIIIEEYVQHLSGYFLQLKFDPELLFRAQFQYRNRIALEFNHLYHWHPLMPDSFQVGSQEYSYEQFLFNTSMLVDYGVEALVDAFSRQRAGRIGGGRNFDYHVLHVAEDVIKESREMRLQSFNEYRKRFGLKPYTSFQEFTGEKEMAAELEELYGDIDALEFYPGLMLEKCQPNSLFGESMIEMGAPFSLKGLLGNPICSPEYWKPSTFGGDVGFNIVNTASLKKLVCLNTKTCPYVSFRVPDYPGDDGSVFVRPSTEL
The experiment in a line: Cyclooxygenase inhibitory activity (HHT formation from arachidonic acid in rat platelet-rich plasma).
Details: not given
It is filed as cell-based, rat (Jcl:wistar).
Take `O=C(NCCCSc1ccncc1)c1cccs1` [Example 46, 4-[3-(2-thenoylamino)propylthio]pyridine]: 7.9 µM corresponded to half-maximal inhibition (IC50).
As for `O=C(NCCCSc1ccncc1)c1ccsc1` [Example 54, 4-[3-(3-thiophenecarbonylamino)propylthio]pyridine], it took 9 µM to reach half-maximal inhibition (IC50).
Still for that read-out and setting: next, `O=C1c2ccccc2CN1CCSc1ccncc1` [Example 105, 4-[2-(isoindolin-1-on-2-yl)ethylthio]pyridine]: 5.1 µM.
Same read-out and setting: next, `O=C1c2ccccc2CN1CCCOc1ccncc1` [Example 101, 4-[3-(isoindolin-1-on-2-yl)propyloxy]pyridine]: 3.2 µM; `O=C(NCCCSc1ccncc1)c1ccccn1` [Example 42, 4-[3-(2-picolynoylamino)propylthio]pyridine]: 13.1 µM; `O=C(NCCCSc1ccncc1)c1cc2ccccc2s1` [Example 57, 4-[3-(thianaphtene-2-carbonylamino)propylthio]pyridine]: 3.6 µM.
Regarding `CCCCCCCCCC(=O)NCCCSc1ccncc1` [Example 1], the half-maximal inhibitory concentration (IC50) – broadly, the concentration at which inhibition is half-maximal – was determined as 1.6 µM.

A further test has as its system ART (antigen-responding T-cell). Description: In vitro ART (antigen-responding T-cell) proliferation test. It is filed as cell-based, Lewis rat. Conditions: Rattus norvegicus, T-cell, 1 μM; read-out: % Inhibition of ART growth.
Regarding `O=C(c1ccccc1)N(CCCSc1ccncc1)Cc1ccccc1` [Example 77, 4-[3-(N-benzyl-N-benzoylamino)propylthio]pyridine hydrochloride], the inhibition (as a rule, the relative decrease from the control value, in per cent) at 1 µM worked out at 28%.
Take `O=C1c2ccccc2CN1CCSc1ccncc1` [Example 105, 4-[2-(isoindolin-1-on-2-yl)ethylthio]pyridine]: the inhibition at 1 µM is -4%.
For `O=C1c2ccccc2CN1CCCOc1ccncc1` [Example 101, 4-[3-(isoindolin-1-on-2-yl)propyloxy]pyridine], the inhibition at 1 µM was determined as 39%.

The test is the same for the next values; noted with them: Rattus norvegicus, T-cell, 10 μM; read-out: % Inhibition of ART growth.
Regarding `O=C(c1ccccc1)N(CCCSc1ccncc1)Cc1ccccc1` [Example 77, 4-[3-(N-benzyl-N-benzoylamino)propylthio]pyridine hydrochloride], the inhibition at 10 µM worked out at 85%.
As for `O=C1c2ccccc2CN1CCSc1ccncc1` [Example 105, 4-[2-(isoindolin-1-on-2-yl)ethylthio]pyridine], the inhibition at 10 µM was -49%.
As for `O=C1c2ccccc2CN1CCCOc1ccncc1` [Example 101, 4-[3-(isoindolin-1-on-2-yl)propyloxy]pyridine], the inhibition at 10 µM was determined as 12%.

The next test deals with T2, 5-Lipoxygenase (Rattus norvegicus, UniProt P12527).
T2 construct: rat basophilic leukemia cell suspension; endogenous in cells
T2 sequence (P12527 1-673): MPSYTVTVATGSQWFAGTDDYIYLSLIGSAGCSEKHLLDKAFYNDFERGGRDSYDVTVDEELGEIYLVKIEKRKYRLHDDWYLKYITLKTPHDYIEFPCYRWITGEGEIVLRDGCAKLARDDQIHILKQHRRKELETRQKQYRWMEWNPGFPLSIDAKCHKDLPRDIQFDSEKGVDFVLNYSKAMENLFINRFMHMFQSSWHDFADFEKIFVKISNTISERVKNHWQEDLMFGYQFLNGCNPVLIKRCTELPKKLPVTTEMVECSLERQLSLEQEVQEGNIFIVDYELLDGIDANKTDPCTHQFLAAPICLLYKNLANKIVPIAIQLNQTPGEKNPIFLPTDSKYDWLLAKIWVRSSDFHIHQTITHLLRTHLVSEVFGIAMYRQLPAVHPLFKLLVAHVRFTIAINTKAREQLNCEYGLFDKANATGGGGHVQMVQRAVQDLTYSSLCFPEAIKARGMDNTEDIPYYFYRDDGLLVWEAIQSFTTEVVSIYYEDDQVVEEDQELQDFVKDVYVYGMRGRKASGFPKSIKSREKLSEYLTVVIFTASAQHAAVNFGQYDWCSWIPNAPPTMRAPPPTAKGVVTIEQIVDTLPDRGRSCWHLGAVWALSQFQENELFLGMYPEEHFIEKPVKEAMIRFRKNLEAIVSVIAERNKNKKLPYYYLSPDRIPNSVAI
Description: 5-Lipoxygenase inhibitory activity in rat basophilic leukemia cells. It is filed as cell-based. To be noted: 5-HETE; read-out: 5-Lipoxygenase inhibitory activity, 5-HETE IC50. On the procedure:
5-Lipoxygenase Inhibitory Activity […] Then, 0.1 ml of mast cell medium containing 50 μg of arachidonic acid and 1 μg of calcium ionophore (A-23187) were added and the mixture was allowed to stand at 37° C. for 15 minutes. Ethanol (1 ml) was added thereto and the mixture was shaken well, and filtered (Membrane filter, 0.45 μm). […] As a control, the measurement was carried out according to the same manner except that 0.01 ml of the solvent used for dissolving the test compound was used in place of the test compound. The inhibitory percentage (%) was calculated from the following equation to obtain IC50.
Consider `O=C(c1ccccc1)N(CCCSc1ccncc1)Cc1ccccc1` [Example 77, 4-[3-(N-benzyl-N-benzoylamino)propylthio]pyridine hydrochloride], for which the IC50 was 3.5 µM.
The same measure, in the same setting: next, `CCCCCCCCCC(=O)NCCCSc1ccncc1` [Example 1]: 16.8 µM.

The same test, now with this note: LTB4; read-out: 5-Lipoxygenase inhibitory activity, LTB4 IC50.
As for `O=C(c1ccccc1)N(CCCSc1ccncc1)Cc1ccccc1` [Example 77, 4-[3-(N-benzyl-N-benzoylamino)propylthio]pyridine hydrochloride], the IC50 turned out to be 3.2 µM.
The same measure, in the same setting: next, `CCCCCCCCCC(=O)NCCCSc1ccncc1` [Example 1]: 16.1 µM.

For a further test, the system named is brewer's yeast induced pyrexia. The experiment in a line: Antipyretic activity (brewer's yeast induced pyrexia). It is filed as in vivo, rat (DS line). Conditions: 50 mg/kg, orally. On the procedure:
Antipyretic Activity Six male DS line rats, 7 weeks old, weighing 200 to 240 g (Nihon Clea) per one group were used. According to the method of Winder et al. (J. Pharmac. Exp. Ther. 138: 405 (1963)), a suspension of 15% brewer's yeast (Sigma) in physiological saline (1 ml/100 g, b.w.) was injected subcutaneously at 16 hours before measurement of the body temperature to induce pyrexia. After injection of yeast, only water was provided, and each rat was bred separately in a five duplicate cage. At 16, 17 and 18 hours after yeast injection, the rectal temperature was measured by a thermistor thermometer (Takara Kogyo K.K.), and this was taken as the basal body temperature. […] Animals having the body temperature of not lower than 38.5° C. at 18 hours after yeast injection were selected, and a test compound was administered orally (1 ml/100 g, b.w.). As a control, only the solvent was provided. Upon administration, the body temperature of the control group and that of the test compound-administered group were adjusted to the same temperature. The rectal temperature was measured every hour till five hours after administration.
Take `O=C(NCCCSc1ccncc1)c1cccs1` [Example 46, 4-[3-(2-thenoylamino)propylthio]pyridine]: the “Antipyretic activity, peak time” value stood at 4 h.
With `O=C(NCCCSc1ccncc1)c1ccsc1` [Example 54, 4-[3-(3-thiophenecarbonylamino)propylthio]pyridine], the “Antipyretic activity, peak time” value is recorded as 5 h.
Still for that read-out and setting: next, `O=C(NCCCSc1ccncc1)c1ccccn1` [Example 42, 4-[3-(2-picolynoylamino)propylthio]pyridine]: 1 h; `O=C(NCCCSc1ccncc1)c1cc2ccccc2s1` [Example 57, 4-[3-(thianaphtene-2-carbonylamino)propylthio]pyridine]: 4 h; `O=C1c2ccccc2C(=O)N1COc1ccncc1` [Example 65, 4-(phthalimidomethyloxy)pyridine]: 4 h.

Staying with this test, now noted: 50 mg/kg, orally, at peak time.
Take `O=C(NCCCSc1ccncc1)c1cccs1` [Example 46, 4-[3-(2-thenoylamino)propylthio]pyridine]: the “Antipyretic activity, .increment. °C.” value was -4.08 °C.
Still for that read-out and setting: next, `O=C(NCCCSc1ccncc1)c1ccsc1` [Example 54, 4-[3-(3-thiophenecarbonylamino)propylthio]pyridine]: -3.50 °C; `O=C(NCCCSc1ccncc1)c1ccccn1` [Example 42, 4-[3-(2-picolynoylamino)propylthio]pyridine]: -0.80 °C.
Consider `O=C(NCCCSc1ccncc1)c1cc2ccccc2s1` [Example 57, 4-[3-(thianaphtene-2-carbonylamino)propylthio]pyridine], for which the “Antipyretic activity, .increment. °C.” value is -1.28 °C.
As to `O=C1c2ccccc2C(=O)N1COc1ccncc1` [Example 65, 4-(phthalimidomethyloxy)pyridine], the “Antipyretic activity, .increment. °C.” value is -0.62 °C.
